The test system of one series is equine GST. Nature of the series: Two-step bioluminogenic GST assay with luciferin derivative. The series is classed as biochemical. As to conditions: versus GST M1-1 and GST A1-1; result in words. As for the experimental part: The derivative was tested in a two step format. […] At different times after the reaction was initiated, a portion was removed and mixed with a luciferase reaction mixture. Reactions in which light production increased over time indicate that GST#3 is a substrate for the GST in that reaction.
Equine GST Solution: 25 mg of equine GST (Part G 6511, Sigma Chemical Company, St. Louis, MO) was dissolved in 5 ml of 10 mM BisTris buffer, pH 6.6. […] […] Glutathione (reduced) (Part G 4251, Sigma Chemical Company) was dissolved in water to create a 100 mM solution. GST #3 was dissolved in acetonitrile to produce a 12 mM solution.

A short description of series [1]: Non-enzymatic transformation of luciferin derivative by glutathione (no GST), luciferase read-out. The series is classed as biochemical. As to conditions: time of mixing/20/40 minutes. As for the experimental part: Buffer stock solutions (1 M) of BisTris at pH 6.5, HEPES, pH 7.0, 7.5 and 8.0 and Tricine pH 8.5 were prepared by dissolving solid reagent obtained from Sigma Chemical Corporation and adjusting the pH to the desired value.
The stock of S. japonica GST used in Example 1A was diluted to 1 mg/ml with 10 mM BisTris pH 6.5.
The reactions were initiated by addition of GST #3 and mixing. […]

A further series deals with T1, QuantiLum Luciferase (Photinus pyralis, UniProt P08659).
T1 construct: purchased Promega Corporation E170
Nature of the series: Scaffolds: light emission of luciferin derivatives with QuantiLum luciferase alone, + Co A, + DTT, + Co A and DTT. The series is classed as biochemical, firefly.

The next series concerns the target T2, GST M1-1 (Homo sapiens, UniProt P09488, K173N).
T2 construct: purchased Sigma
The series is described as follows: Bioluminogenic GST assay with acetyl luciferin. The series is classed as biochemical. To be noted: versus GST A1-1; result in words.

A further series deals with CYP3A5 (Homo sapiens, UniProt P20815). The series is described as follows: Two-step luminescent P450 screen of luciferin derivatives. As to conditions: result in words.
The next series deals with luciferase. Nature of the series: No-enzyme control: activity of luciferase towards the luciferin derivative (background luminescence).
For series [2], the target named is T3, CYP4F12 (Homo sapiens, UniProt Q9HCS2).
T3 construct: purchased Discovery Labware (BD/Gentest); host or cells: insect cell expression system (membrane fractions)
T3 sequence (Q9HCS2 1-524): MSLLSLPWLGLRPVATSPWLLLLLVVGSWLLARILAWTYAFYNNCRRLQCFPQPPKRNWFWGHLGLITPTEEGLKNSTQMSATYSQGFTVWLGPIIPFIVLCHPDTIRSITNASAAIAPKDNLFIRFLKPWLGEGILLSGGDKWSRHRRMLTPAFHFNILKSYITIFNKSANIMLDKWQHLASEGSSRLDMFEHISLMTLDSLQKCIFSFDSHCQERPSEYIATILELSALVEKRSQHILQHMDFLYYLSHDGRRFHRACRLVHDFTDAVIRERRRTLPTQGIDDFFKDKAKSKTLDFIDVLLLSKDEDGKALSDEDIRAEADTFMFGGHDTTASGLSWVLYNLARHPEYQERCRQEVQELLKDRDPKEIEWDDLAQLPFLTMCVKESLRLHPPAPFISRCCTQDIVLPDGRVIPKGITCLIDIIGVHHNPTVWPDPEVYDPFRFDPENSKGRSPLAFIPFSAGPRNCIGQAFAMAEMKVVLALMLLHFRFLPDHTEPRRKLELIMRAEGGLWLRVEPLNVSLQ
Nature of the series: Two-step luminescent P450 screen of luciferin derivatives. The series is classed as biochemical. To be noted: result in words. On the procedure: P450s are Supersomes™ purchased from Discovery Labware (BD/Gentest). […] HLM is human liver microsomes.
1X substrate concentration: 50 µM.

Series [3] addresses T3, CYP4F12. To be noted: previously shown (Cali, 2005b); cited from earlier work.
Series [4] addresses T4, CYP3A4 (Homo sapiens, UniProt P08684). Nature of the series: Two-step luminescent P450 screen of luciferin derivatives. To be noted: result in words.
Series [5] addresses T5, CYP3A7 (Homo sapiens, UniProt P24462). Described as above. As to conditions: result in words.
Series [6] deals with T4, CYP3A4.
In series [7] the target is T5, CYP3A7.
[8] abbreviates: Derivative Conc. 1.07, Co A + DTT.
The mark [9] stands for this setting: Derivative Conc. 3.13, Co A + DTT.
Where [10] appears, read: Derivative Conc. 6.25, Co A + DTT.
The mark [11] stands for this setting: Derivative Conc. 12.5, Co A + DTT.
Where [12] appears, read: Derivative Conc. 25, Co A + DTT.
Setting [13] is: Derivative Conc. 50, Co A + DTT.
Setting [14] is: Derivative Conc. 100, Co A + DTT.

Like-named read-outs stand apart in the source and are kept apart here.

T1 sequence (P08659 whole entry): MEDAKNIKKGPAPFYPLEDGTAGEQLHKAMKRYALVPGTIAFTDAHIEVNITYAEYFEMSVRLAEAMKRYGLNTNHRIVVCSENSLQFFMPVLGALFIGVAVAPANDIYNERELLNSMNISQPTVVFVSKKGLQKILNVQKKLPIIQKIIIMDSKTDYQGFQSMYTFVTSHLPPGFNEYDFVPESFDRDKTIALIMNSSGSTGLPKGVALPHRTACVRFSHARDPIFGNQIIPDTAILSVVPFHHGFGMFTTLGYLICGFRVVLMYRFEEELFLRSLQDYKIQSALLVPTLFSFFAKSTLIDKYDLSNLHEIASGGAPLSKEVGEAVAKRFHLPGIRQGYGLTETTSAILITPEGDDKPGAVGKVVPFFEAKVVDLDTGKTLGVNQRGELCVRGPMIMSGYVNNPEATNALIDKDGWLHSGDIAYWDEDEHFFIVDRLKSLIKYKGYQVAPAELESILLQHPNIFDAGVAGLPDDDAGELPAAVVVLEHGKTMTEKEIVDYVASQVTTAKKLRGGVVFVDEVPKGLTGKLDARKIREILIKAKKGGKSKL
T5 sequence (P24462 whole entry): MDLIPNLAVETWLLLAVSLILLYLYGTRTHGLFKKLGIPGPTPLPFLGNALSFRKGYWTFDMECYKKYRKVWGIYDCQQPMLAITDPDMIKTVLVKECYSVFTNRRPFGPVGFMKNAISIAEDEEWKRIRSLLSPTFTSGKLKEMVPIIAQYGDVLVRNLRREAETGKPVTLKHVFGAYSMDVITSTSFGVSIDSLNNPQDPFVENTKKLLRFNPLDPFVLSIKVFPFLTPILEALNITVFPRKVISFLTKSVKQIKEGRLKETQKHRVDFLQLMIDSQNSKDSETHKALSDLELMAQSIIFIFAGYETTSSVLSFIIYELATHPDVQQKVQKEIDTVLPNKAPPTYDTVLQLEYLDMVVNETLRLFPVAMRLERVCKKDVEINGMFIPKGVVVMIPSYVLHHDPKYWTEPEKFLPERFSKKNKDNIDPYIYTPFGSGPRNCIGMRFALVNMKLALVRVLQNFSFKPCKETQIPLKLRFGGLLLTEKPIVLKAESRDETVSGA
T4 sequence (P08684 2-503 limits assumed): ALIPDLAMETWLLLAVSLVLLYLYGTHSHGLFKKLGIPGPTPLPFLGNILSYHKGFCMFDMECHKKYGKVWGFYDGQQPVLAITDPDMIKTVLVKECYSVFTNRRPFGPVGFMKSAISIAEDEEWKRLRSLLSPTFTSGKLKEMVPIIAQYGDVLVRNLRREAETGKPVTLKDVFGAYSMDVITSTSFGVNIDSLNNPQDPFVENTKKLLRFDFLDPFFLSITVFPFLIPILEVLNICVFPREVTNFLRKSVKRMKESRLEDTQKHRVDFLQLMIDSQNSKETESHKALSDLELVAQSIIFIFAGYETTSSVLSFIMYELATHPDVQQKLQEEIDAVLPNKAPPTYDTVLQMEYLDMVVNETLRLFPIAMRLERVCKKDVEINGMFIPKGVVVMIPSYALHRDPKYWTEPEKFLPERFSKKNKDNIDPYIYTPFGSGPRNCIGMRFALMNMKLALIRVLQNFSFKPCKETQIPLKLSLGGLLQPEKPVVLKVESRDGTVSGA
CYP3A5, sequence (P20815 whole entry): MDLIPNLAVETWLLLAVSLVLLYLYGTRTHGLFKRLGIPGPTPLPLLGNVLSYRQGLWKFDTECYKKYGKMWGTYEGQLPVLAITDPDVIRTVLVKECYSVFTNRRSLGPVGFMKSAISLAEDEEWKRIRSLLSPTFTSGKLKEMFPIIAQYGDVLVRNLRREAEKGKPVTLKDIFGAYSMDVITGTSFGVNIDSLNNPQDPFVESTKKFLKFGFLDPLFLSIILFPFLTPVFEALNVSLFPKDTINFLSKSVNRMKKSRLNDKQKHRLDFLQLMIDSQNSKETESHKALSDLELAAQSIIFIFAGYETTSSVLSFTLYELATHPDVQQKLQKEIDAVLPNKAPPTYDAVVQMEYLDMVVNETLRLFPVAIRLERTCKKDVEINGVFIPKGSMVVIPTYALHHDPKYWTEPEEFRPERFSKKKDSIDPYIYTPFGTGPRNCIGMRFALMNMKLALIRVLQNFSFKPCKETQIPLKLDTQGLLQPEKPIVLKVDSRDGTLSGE
T2 sequence (P09488 whole entry K173N): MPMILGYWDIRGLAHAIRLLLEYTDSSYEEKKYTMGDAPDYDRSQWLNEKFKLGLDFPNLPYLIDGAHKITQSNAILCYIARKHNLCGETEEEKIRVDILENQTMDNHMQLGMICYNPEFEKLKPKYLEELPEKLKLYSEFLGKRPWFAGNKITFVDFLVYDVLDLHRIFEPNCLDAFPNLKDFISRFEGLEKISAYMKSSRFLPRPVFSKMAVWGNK

Turning to `O=C(O)[C@H]1CSC(c2ccc3cc(Oc4ccc(C(F)(F)F)cc4[N+](=O)[O-])ccc3n2)=N1` [GST #3, 6-(2-nitro-4-trifluoromethyl-phenoxy)quinolinyl-luciferin], in the series with equine GST, the “substrate preference among GSTs in a light generating reaction” value was “better substrate for equine GST”. The “Light Output” value in series [1] (Table 4 reaction 2: BisTris pH 6.5, 5 µl 100 mM glutathione, no GST, 20 minutes post mixing) came to 1.287; in series [1] (Table 4 reaction 2: BisTris pH 6.5, 5 µl 100 mM glutathione, no GST, 40 minutes post mixing), 1.761; in series [1] (Table 4 reaction 2: BisTris pH 6.5, 5 µl 100 mM glutathione, no GST, at time of mixing), 1.13; in series [1] (Table 4 reaction 4: HEPES pH 7.0, glutathione, 20 minutes post mixing), 1.178; in series [1] (Table 4 reaction 4: HEPES pH 7.0, glutathione, 40 minutes post mixing), 2.2; in [1] (Table 4 reaction 4: HEPES pH 7.0, glutathione, at time of mixing), 1.156. Moreover, the light emission values was found to be 3232 on QuantiLum Luciferase (Derivative Conc. 1.07, Alone); 3081 on QuantiLum Luciferase (Derivative Conc. 1.07, Co A); 6964 at QuantiLum Luciferase (setting [8]); 5953 on QuantiLum Luciferase (Derivative Conc. 1.07, DTT); 4913 at QuantiLum Luciferase (Derivative Conc. 3.13, Alone); 4832 at QuantiLum Luciferase (Derivative Conc. 3.13, Co A). The light emission values was determined as 8826 at QuantiLum Luciferase (setting [9]); 9106 at QuantiLum Luciferase (Derivative Conc. 3.13, DTT); 7682 on QuantiLum Luciferase (Derivative Conc. 6.25, Alone); 7149 at QuantiLum Luciferase (Derivative Conc. 6.25, Co A); 10423 on QuantiLum Luciferase (setting [10]); 11164 on QuantiLum Luciferase (Derivative Conc. 6.25, DTT). For the same molecule, the light emission values at QuantiLum Luciferase (Derivative Conc. 12.5, Alone) is on record as 11752; on QuantiLum Luciferase (Derivative Conc. 12.5, Co A) it was 10674; at QuantiLum Luciferase (setting [11]), 14298; at QuantiLum Luciferase (Derivative Conc. 12.5, DTT), 16587; on QuantiLum Luciferase (Derivative Conc. 25, Alone) it was 15957; at QuantiLum Luciferase (Derivative Conc. 25, Co A) it was 14791. Further, the light emission values at QuantiLum Luciferase (setting [12]) was determined as 18145; on QuantiLum Luciferase (Derivative Conc. 25, DTT) it was 21256; at QuantiLum Luciferase (Derivative Conc. 50, Alone), 17409; at QuantiLum Luciferase (Derivative Conc. 50, Co A), 15440; on QuantiLum Luciferase (setting [13]), 20009; on QuantiLum Luciferase (Derivative Conc. 50, DTT), 22888. The light emission values on QuantiLum Luciferase (Derivative Conc. 100, Alone) stood at 16388; at QuantiLum Luciferase (Derivative Conc. 100, Co A), 18343; on QuantiLum Luciferase (setting [14]) it was 19129; on QuantiLum Luciferase (Derivative Conc. 100, DTT) it was 21472.

As for `COC(=O)[C@H]1CSC(c2ccc3cc(Oc4ccc(C(F)(F)F)cc4[N+](=O)[O-])ccc3n2)=N1` [GST-4, Methyl 6-(2-nitro-4-trifluoromethyl-phenoxy)quinolinyl-luciferin ester], the “substrate preference among GSTs in a light generating reaction” value at GST M1-1 is listed as “better substrate for GST M1-1”.

Regarding `O=C(O)[C@H]1CSC(c2nc3ccc(OCc4ccc(C(F)(F)F)cc4)cc3s2)=N1` [Luciferin-6-trifluoromethylbenzylether], the “P450 activity / selectivity with the derivative as substrate” value (shortened to “P450 activity / selectivity”) at CYP3A5 is given as “enhanced selectivity”.

Turning to `CC(=O)N1CCN(c2ccc(OCC3COC(Cn4ccnc4)(c4ccc(Cl)cc4Cl)O3)cc2)CC1` (centres unmarked) [ketoconazole], in the series with CYP3A, the “CYP3A-dependent luminescence in human hepatocytes” value was “inhibition by ketoconazole of both basal and rifampicin-induced activity”.

Regarding `O=C(O)[C@H]1CSC(c2nc3ccc(OCc4ccccc4)cc3s2)=N1` [luciferin 6-benzyl ether, reference compound], the background luminescence result in the series on luciferase (on a BMG luminometer, minus P450) was “about 5000 RLU”. Also, the “background luminescence (minus P450 control samples)” value in the series with luciferase (result in words) was “high background luminescence”. In addition, at CYP4F12 [2], the “P450 activity / cross reactivity with the derivative as substrate” value is reported as “cross reacted”. Moreover, the light emission values at QuantiLum Luciferase (Derivative Conc. 1.07, Alone) is listed as 29234; on QuantiLum Luciferase (Derivative Conc. 1.07, Co A) it was 50144; on QuantiLum Luciferase (setting [8]), 51799; at QuantiLum Luciferase (Derivative Conc. 1.07, DTT) it was 57066; at QuantiLum Luciferase (Derivative Conc. 3.13, Alone) it was 32994; on QuantiLum Luciferase (Derivative Conc. 3.13, Co A) it was 55778. The light emission values on QuantiLum Luciferase (setting [9]) worked out at 80626; at QuantiLum Luciferase (Derivative Conc. 3.13, DTT), 86445; on QuantiLum Luciferase (Derivative Conc. 6.25, Alone), 38838; at QuantiLum Luciferase (Derivative Conc. 6.25, Co A), 58288; on QuantiLum Luciferase (setting [10]) it was 105912; on QuantiLum Luciferase (Derivative Conc. 6.25, DTT), 100044. For the same molecule, the light emission values at QuantiLum Luciferase (Derivative Conc. 12.5, Alone) was found to be 40486; at QuantiLum Luciferase (Derivative Conc. 12.5, Co A), 57996; on QuantiLum Luciferase (setting [11]), 97371; on QuantiLum Luciferase (Derivative Conc. 12.5, DTT) it was 94861; at QuantiLum Luciferase (Derivative Conc. 25, Alone) it was 40093; on QuantiLum Luciferase (Derivative Conc. 25, Co A) it was 53097. Further, the light emission values on QuantiLum Luciferase (setting [12]) is 90306; at QuantiLum Luciferase (Derivative Conc. 25, DTT) it was 84034; on QuantiLum Luciferase (Derivative Conc. 50, Alone), 30609; at QuantiLum Luciferase (Derivative Conc. 50, Co A), 38349; at QuantiLum Luciferase (setting [13]), 98716; on QuantiLum Luciferase (Derivative Conc. 50, DTT) it was 80001. Also, the light emission values at QuantiLum Luciferase (Derivative Conc. 100, Alone) was 31581; at QuantiLum Luciferase (Derivative Conc. 100, Co A), 33199; at QuantiLum Luciferase (setting [14]), 64460; on QuantiLum Luciferase (Derivative Conc. 100, DTT), 54592. Further, the “reaction with CYP4F12” value on CYP4F12 [3] is “react also with CYP4F12”. On CYP3A4 [4], the “competition at the substrate binding sites on CYP3A4” value is on record as “only competitive at 1 site”. Further, the “P450 activity / selectivity” value at CYP3A7 [5] is on record as “cross reacted significantly”.

With quinolylluciferin 6-benzyl ether, the “P450 activity / selectivity” value is listed as “to a lesser degree a substrate” at CYP3A4 [6] and “preferred substrate” at CYP3A7 [7].
